Results from paper PMC7022466, “Developing Clinically Relevant Dissolution Specifications for Oral Drug Products—Industrial and Regulatory Perspectives” (Pharmaceutics, 2019).
Read-outs that look alike come from different tables or passages of the source.

What was measured:
[1] = Food effect (high-fat meal) on absorption; format: in vivo; details: clinically relevant dose strengths
From the text: (§1) In a first step, the physico-chemical characteristics of both API forms were compared in biorelevant media. Table 1 provides an overview of the solubility data and intrinsic dissolution properties. For both API forms, the compound is practically insoluble in water, irrespective of pH, but it undergoes substantial solubilization in the presence of bile. […] However, as the solubility of the newly isolated form is about 40% lower when compared to canagliflozin hemihydrate, the bioavailability in the fasted state conditions remains uncertain.
The integration of the biopharmaceutical parameters relevant for drug absorption in a more physiological context further expanded the risk assessment. For this, a PBBM model was developed and validated for JNJ-1 while using GastroPlus™ (version 8.5). Based on the available physicochemical properties, in vitro biopharmaceutical experimentation, biorelevant dissolution data, and clinical PK parameters, the model was able to simulate the in vivo observed clinical PK data.

BCS classification = format: physicochemical
From the text: The Biopharmaceutics Classification System (BCS) provides a well-established framework for assessing the biopharmaceutics risk of immediate release drug products, based on properties of the Active Pharmaceutical Ingredient (API) and drug product. The compounds are classified into one of four groups, according to their solubility and permeability properties. Compounds in BCS Class 1 (high solubility, high permeability) and BCS Class 3 (high solubility, low permeability) are eligible for biowaivers, i.e., the requirement for an in vivo bioequivalence study is waived if certain requirements are met. For the development of CRDS for these compounds, the BCS effectively acts as an accepted body of ‘prior knowledge’, as the ability of dissolution in simple aqueous buffers across the physiological pH range to ensure in vivo bioequivalence is already well established. This can form the basis of CRDS for BCS Class 1 and 3 compounds, unless additional data are generated to justify the further widening of these limits for a specific drug product.
During the experiments for continuous process improvements of JNJ-1, a new crystal form has been isolated from the drug substance crude crystallization step. The new form appeared to be the thermodynamically favoured form in the process conditions. […]

[2] = Intrinsic dissolution rate in biorelevant media; format: physicochemical
From the text: as §1

[3] = Solubility in biorelevant media; format: physicochemical
From the text: as §1

[4] = design: method as in PMID 25182387; details: cited from earlier work
[5] = design: method as in PMID 25182387; details: pH 4.5 and 6.8; cited from earlier work
[6] = cited from earlier work
[7] = virtual simulation, 120 mg tablets; cited from earlier work

Row | SMILES | Effect of a high-fat meal on absorption [1] | BCS class (BCS classification) | Intrinsic Dissolution Rate FaSSIF ([2]; FaSSIF) [µg/min/cm^2] | Intrinsic Dissolution Rate FeSSIF ([2]; FeSSIF) [µg/min/cm^2] | Intrinsic Dissolution Rate SGF ([2]; SGF) [µg/min/cm^2] | Solubility FaSSIF ([3]; FaSSIF) [µg/mL] | Solubility FeSSIF ([3]; FeSSIF) [µg/mL] | Solubility SGF ([3]; SGF) [µg/mL] | BCS class [4] | F2 similarity test of dissolution profiles between two sites [5] | Bioequivalence of formulations from the two sites, clinical study [6] | Predicted AUC0-120 hr and Cmax bioequivalence of two sites formulations [7]
1 | Cc1ccc([C@@H]2O[C@H](CO)[C@@H](O)[C@H](O)[C@H]2O)cc1Cc1ccc(-c2ccc(F)cc2)s1.O [Registered crystal form, canagliflozin hemihydrate] | absence of any effect | BCS class 4 | 13.8 | 157.9 | 3.9 | 540 | 5000 | 37 | – | – | – | –
2 | Cc1ccc(-c2ncc(Cl)cc2-c2ccc(S(C)(=O)=O)cc2)cn1 [etoricoxib] | – | – | – | – | – | – | – | – | BCS II | failed | bioequivalent | bioequivalent
